Assay results from US20230107039A1, “SOFT CHEWABLE FORMED BODY FOR THE ADMINISTRATION TO ANIMALS” (Bayer Animal Health GmbH, priority 2020, published 2023).

Test: Solubility in a mixture of water and glycerol
Type: physicochemical
Settings: experimental studies, no figures given

solubility in a mixture of water and glycerol: high solubility
Structure (SMILES): O=C(C1CCCCC1)N1CC(=O)N2CCc3ccccc3C2C1 (racemic) [praziquantel, (RS)-2-(Cyclohexylcarbonyl)-2,3,4,6,7,11b-hexahydro-1H-pyrazino[2,1-a]isochinoline-4-on]
